Legend:
FLT3 (D835Y) = target: T1, FLT3 (D835Y) (Homo sapiens, UniProt P36888, D835Y); assay: HotSpot kinase assay against FLT3 (D835Y); type: biochemical; settings: HotSpot 33P assay, ATP 10 μM
T1 sequence (P36888 27-993 D835Y): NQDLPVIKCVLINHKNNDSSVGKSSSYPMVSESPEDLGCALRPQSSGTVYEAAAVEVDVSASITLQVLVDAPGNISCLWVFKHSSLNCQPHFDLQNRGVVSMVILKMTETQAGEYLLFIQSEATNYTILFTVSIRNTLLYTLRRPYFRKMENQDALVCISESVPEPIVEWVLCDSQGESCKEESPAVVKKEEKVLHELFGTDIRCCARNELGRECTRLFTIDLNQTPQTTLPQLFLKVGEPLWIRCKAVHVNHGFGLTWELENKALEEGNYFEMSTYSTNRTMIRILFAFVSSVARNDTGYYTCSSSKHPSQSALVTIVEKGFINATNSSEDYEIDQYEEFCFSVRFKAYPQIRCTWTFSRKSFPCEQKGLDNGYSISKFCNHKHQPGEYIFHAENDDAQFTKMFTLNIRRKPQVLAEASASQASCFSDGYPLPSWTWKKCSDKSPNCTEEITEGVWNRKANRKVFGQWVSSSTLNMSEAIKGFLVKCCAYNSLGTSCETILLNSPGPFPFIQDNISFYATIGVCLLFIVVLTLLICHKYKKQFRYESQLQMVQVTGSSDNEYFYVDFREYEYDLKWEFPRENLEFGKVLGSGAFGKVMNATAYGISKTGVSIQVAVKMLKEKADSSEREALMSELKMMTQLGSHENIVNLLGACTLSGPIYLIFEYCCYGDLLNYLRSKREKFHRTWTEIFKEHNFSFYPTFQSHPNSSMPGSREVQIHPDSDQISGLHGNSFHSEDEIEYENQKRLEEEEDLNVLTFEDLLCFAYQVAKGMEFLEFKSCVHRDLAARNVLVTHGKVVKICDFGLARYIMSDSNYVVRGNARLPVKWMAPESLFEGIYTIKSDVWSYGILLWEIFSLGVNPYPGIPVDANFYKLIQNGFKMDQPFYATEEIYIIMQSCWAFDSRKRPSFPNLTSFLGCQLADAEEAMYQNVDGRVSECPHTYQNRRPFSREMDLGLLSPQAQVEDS
Description: Kinase assays were performed using test compounds against a panel of FLT3 kinases: FLT3; FLT3 (D835Y); and FLT3 (ITD). Compounds were prepared as 10 mM stock solutions in DMSO prior to use in the assay. Each compound was tested at 10 concentrations with three-fold serial dilution starting at 1 μM against the three kinases. The control compound, staurosporine, was tested at 10 concentrations with four-fold serial dilution starting at 20 μM. IC50 values and curve fits were obtained using Prism (GraphPad Software). The screening was performed using the “HotSpot” assay platform. The assay measures the conversion of a peptide substrate to ^33P-labelled phosphorylated product. Briefly, specific kinase/substrate pairs along with required cofactors were prepared in reaction buffer. Specifically, the substrate was prepared in reaction buffer (20 mM Hepes, pH 7.5; 10 mM MgCl2; 1 mM EGTA; 0.02% Brij35; 0.02 mg/mL BSA; 0.1 mM Na3VO4; 2 mM DTT; 1% DMSO), followed by delivery of any required cofactor to the resulting substrate solution. The corresponding kinase was delivered into the substrate solution and the reaction mixture was mixed gently. Compound was delivered into the reaction mixture, followed 15-20 min later by addition of a mixture of ATP (Sigma, St. Louis Mo.) and ^33P ATP (specific activity 0.01 μCi/μL final; Perkin Elmer, Waltham, Mass.) to a final concentration of 10 μM to initiate the reaction. Reactions were carried out at RT for 120 min, followed by spotting of the reactions onto P81 ion exchange filter paper (Whatman #3698-915; Whatman Inc., Piscataway, N.J.). Unbound phosphate was removed by extensive washing of filters in 0.75% phosphoric acid. […] The percent of enzyme inhibition was calculated based on the percent of remaining kinase activity. IC50 values were determined.

ABL2/ARG = ABL2/ARG (Homo sapiens, UniProt P42684); assay: HotSpot kinase assay against ABL2/ARG; type: biochemical; settings: HotSpot 33P assay, ATP 10 μM-30 μM
Description: The screening was performed using the “HotSpot” assay platform. The assay measures the conversion of a peptide substrate to ^33P-labelled phosphorylated product. Briefly, specific kinase/substrate pairs along with required cofactors were prepared in reaction buffer. Specifically, the substrate was prepared in reaction buffer (20 mM Hepes, pH 7.5; 10 mM MgCl2; 1 mM EGTA; 0.02% Brij35; 0.02 mg/mL BSA; 0.1 mM Na3VO4; 2 mM DTT; 1% DMSO), followed by delivery of any required cofactor to the resulting substrate solution. The corresponding kinase was delivered into the substrate solution and the reaction mixture was mixed gently. Compound was delivered into the reaction mixture, followed 15-20 minutes later by addition of a mixture of ATP (Sigma, St. Louis Mo.) and ^33P ATP (specific activity 0.01 μCi/μL final; Perkin Elmer, Waltham, Mass.) to a final concentration of 10 μM-30 μM to initiate the reaction. Reactions were carried out at RT for 120 min, followed by spotting of the reactions onto P81 ion exchange filter paper (Whatman #3698-915; Whatman Inc., Piscataway, N.J.). Unbound phosphate was removed by extensive washing of filters in 0.75% phosphoric acid. […] The percent of enzyme inhibition was calculated based on the percent of remaining kinase activity. IC50 values and curve fits were obtained using Prism (GraphPad Software).

ABL2/ARG, sequence (P42684 whole entry): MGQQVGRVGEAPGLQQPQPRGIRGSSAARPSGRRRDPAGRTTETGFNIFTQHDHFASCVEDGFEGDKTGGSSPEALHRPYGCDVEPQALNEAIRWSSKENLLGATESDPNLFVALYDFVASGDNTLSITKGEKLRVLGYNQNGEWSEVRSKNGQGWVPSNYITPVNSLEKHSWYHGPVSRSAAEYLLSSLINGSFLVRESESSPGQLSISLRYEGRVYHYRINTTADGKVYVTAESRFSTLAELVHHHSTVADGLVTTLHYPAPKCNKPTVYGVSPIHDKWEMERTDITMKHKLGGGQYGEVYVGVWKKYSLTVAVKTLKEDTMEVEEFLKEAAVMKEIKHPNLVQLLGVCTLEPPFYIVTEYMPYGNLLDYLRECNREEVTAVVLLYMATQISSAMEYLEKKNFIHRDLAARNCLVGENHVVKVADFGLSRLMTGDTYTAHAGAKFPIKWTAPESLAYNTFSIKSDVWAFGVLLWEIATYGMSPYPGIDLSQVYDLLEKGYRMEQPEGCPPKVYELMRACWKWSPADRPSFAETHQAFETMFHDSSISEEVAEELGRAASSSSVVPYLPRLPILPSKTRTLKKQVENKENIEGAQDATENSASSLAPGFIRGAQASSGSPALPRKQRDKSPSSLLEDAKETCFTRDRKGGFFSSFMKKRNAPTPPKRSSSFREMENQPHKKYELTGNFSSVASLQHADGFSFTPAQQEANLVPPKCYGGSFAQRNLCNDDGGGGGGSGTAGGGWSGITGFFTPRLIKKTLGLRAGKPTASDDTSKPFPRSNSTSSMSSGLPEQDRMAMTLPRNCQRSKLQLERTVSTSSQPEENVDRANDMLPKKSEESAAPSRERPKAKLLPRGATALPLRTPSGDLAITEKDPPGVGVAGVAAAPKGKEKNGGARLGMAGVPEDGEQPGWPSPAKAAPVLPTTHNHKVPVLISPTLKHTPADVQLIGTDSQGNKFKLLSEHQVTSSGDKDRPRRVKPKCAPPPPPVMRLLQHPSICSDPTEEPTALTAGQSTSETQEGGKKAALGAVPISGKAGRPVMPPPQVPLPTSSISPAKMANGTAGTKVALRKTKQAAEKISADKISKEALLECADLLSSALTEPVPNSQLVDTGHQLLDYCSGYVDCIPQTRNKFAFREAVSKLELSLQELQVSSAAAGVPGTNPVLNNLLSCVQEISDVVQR

| SMILES | IC50 (FLT3 (D835Y)) [nM] | IC50 (ABL2/ARG) [nM] |
| --- | --- | --- |
| CC1(C(=O)N2CCC(F)(F)CC2)CCCN1c1nc2c(c(Nc3cc(C4CCCC4)[nH]n3)n1)CCC2 (racemic) [compound 146, (1-(4-((5-cyclopentyl-1H-pyrazol-3-yl)amino)-6,7-dihydro-5H-cyclopenta[d]pyrimidin-2-yl)-2-methylpyrrolidin-2-yl)(4,4-difluoropiperidin-1-yl)methanone] | 1570 | – |
| CC(C)c1cc(Nc2nc(N3CCC[C@H]3C(=O)N(C)c3nccs3)nc3c2CCC3)n[nH]1 [68b, (S)-1-(4-((5-isopropyl-1H-pyrazol-3-yl)amino)-6,7-dihydro-5H-cyclopenta[d]pyrimidin-2-yl)-N-methyl-N-(thiazol-2-yl)pyrrolidine-2-carboxamide] | 83.8 | 41 |
| CC(C)(C)c1cc(Nc2nc(N3CCC[C@@H]3C(=O)N3CCC(F)(F)CC3)nc3c2CCC3)n[nH]1 [142a, (R)-(1-(4-((5-(tert-butyl)-1H-pyrazol-3-yl)amino)-6,7-dihydro-5H-cyclopenta[d]pyrimidin-2-yl)pyrrolidin-2-yl)(4,4-difluoropiperidin-1-yl)methanone] | > 1000 | > 1000 |
| CCC(=O)N1CCN(C(=O)[C@@H]2CCCN2c2nc3c(c(Nc4cc(C5CCCC5)[nH]n4)n2)CCC3)CC1 [143b, (S)-1-(4-((4-((5-cyclopentyl-1H-pyrazol-3-yl)amino)-6,7-dihydro-5H-cyclopenta[d]pyrimidin-2-yl)prolyl)piperazin-1-yl)propan-1-one] | 187 | > 1000 |
| CCN(C(=O)[C@@H]1CCCN1c1nc2c(c(Nc3cc(C(C)C)[nH]n3)n1)CCC2)c1nccs1 [145b, (S)—N-ethyl-1-(4-((5-isopropyl-1H-pyrazol-3-yl)amino)-6,7-dihydro-5H-cyclopenta[d]pyrimidin-2-yl)-N-(thiazol-2-yl)pyrrolidine-2-carboxamide] | 262 | – |

More lines, now with the values ahead:

| IC50 (FLT3 (D835Y)) [nM] | IC50 (ABL2/ARG) [nM] | SMILES |
| --- | --- | --- |
| > 1000 | > 1000 | CC(C)(C)c1cc(Nc2nc(N3CCC[C@H]3C(=O)N3CCC(F)(F)CC3)nc3c2CCC3)n[nH]1 [142b, (S)-(1-(4-((5-(tert-butyl)-1H-pyrazol-3-yl)amino)-6,7-dihydro-5H-cyclopenta[d]pyrimidin-2-yl)pyrrolidin-2-yl)(4,4-difluoropiperidin-1-yl)methanone] |
| 14 | 398 | CCC(=O)N1CCN(C(=O)[C@H]2CCCN2c2nc3c(c(Nc4cc(C5CCCC5)[nH]n4)n2)CCC3)CC1 [143a, 1-(4-((4-((5-cyclopentyl-1H-pyrazol-3-yl)amino)-6,7-dihydro-5H-cyclopenta[d]pyrimidin-2-yl)-D-prolyl)piperazin-1-yl)propan-1-one] |
| > 1000 | > 1000 | CCN(C(=O)[C@@H]1CCCN1c1nc2c(c(Nc3cc(C(C)(C)C)[nH]n3)n1)CCC2)c1nccs1 [144b, (S)-1-(4-((5-(tert-butyl)-1 H-pyrazol-3-yl)amino)-6,7-dihydro-5H-cyclopenta[d]pyrimidin-2-yl)-N-ethyl-N-(thiazol-2-yl)pyrrolidine-2-carboxamide] |
